Experimental data as given in ChEMBL document CHEMBL5291721, “A preclinical secondary pharmacology resource illuminates target-adverse drug reaction associations of marketed drugs” (Nat Commun, 2023).

Experiments:
[1] = target: Sodium-dependent serotonin transporter (Homo sapiens, UniProt P31645)
[2] = target: T1, Neuropeptide Y receptor type 1 (Homo sapiens, UniProt P25929)
T1 sequence (P25929 whole entry): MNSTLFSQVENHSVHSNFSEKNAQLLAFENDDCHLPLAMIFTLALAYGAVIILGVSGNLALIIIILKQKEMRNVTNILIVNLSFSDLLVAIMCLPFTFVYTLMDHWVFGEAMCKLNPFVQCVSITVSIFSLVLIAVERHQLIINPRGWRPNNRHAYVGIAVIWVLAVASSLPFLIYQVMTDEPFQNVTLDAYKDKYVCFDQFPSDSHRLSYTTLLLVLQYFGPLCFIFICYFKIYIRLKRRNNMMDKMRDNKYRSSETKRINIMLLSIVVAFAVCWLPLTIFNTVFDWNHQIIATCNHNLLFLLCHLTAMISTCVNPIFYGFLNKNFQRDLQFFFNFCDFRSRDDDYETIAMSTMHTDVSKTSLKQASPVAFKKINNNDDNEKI

[3] = target: T2, Type-1 angiotensin II receptor (Homo sapiens, UniProt P30556)
T2 sequence (P30556 whole entry): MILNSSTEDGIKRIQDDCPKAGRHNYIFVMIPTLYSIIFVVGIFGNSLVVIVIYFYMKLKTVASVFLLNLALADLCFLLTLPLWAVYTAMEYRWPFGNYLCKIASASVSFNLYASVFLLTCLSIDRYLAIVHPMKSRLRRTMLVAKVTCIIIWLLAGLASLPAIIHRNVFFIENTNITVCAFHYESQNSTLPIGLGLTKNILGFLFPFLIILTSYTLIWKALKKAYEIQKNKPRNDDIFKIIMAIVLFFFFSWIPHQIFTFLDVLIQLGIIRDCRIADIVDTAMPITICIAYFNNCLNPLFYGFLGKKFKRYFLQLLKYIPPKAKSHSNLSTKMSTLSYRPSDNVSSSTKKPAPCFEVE

D(3) dopamine receptor = D(3) dopamine receptor (Homo sapiens, UniProt P35462)
[4] = target: T3, Gamma-aminobutyric acid receptor subunit alpha-1 (Rattus norvegicus, UniProt P62813)
[5] = target: T4, Equilibrative nucleoside transporter 1 (Homo sapiens, UniProt Q99808)
T4 sequence (Q99808 whole entry): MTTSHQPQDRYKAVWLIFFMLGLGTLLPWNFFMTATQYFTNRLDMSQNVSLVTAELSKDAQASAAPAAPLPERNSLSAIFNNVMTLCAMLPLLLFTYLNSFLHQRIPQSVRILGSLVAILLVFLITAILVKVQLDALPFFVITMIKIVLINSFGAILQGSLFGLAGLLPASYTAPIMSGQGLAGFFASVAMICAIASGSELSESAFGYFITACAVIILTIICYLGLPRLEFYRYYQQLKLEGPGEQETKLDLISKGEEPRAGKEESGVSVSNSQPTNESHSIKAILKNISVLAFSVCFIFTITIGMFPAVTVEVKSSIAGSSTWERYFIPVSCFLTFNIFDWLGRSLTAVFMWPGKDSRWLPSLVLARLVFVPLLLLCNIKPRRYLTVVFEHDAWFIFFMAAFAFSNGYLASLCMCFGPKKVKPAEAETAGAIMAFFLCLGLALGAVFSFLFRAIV

[6] = target: T5, 5-hydroxytryptamine receptor 1A (Homo sapiens, UniProt P08908); assay type: functional, cell-based
T5 sequence (P08908 whole entry): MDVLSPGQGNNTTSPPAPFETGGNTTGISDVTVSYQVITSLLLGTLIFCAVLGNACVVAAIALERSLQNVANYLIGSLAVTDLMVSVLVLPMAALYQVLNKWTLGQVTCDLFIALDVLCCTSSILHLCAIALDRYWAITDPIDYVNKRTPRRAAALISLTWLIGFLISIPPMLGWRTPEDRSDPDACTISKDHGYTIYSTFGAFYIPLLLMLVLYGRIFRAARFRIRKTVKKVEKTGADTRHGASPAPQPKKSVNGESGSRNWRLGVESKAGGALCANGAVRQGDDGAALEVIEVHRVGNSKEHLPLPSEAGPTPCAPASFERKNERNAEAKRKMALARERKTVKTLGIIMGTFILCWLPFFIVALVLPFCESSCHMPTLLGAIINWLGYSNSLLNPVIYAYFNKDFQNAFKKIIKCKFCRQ

Histamine H2 receptor = Histamine H2 receptor (Homo sapiens, UniProt P25021); assay type: functional, cell-based
Histamine H1 receptor = Histamine H1 receptor (Homo sapiens, UniProt P35367)
[7] = target: Sodium-dependent noradrenaline transporter (Homo sapiens, UniProt P23975)
[8] = target: T6, 5-hydroxytryptamine receptor 3A (Homo sapiens, UniProt P46098); assay type: functional
T6 sequence (P46098 whole entry): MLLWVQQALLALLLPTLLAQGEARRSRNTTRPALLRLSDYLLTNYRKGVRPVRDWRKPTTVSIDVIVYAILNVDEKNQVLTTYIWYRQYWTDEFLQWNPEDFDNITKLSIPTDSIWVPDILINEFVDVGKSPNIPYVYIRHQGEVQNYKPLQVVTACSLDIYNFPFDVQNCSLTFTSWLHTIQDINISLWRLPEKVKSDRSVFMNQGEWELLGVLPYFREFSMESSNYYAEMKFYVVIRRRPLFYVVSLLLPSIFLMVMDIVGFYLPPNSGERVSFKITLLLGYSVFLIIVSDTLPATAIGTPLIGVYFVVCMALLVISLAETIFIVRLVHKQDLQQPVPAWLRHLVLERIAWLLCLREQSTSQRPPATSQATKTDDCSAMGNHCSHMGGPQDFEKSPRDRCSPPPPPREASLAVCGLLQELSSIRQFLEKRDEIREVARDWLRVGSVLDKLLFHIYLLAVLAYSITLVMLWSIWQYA

[9] = target: Glutamate receptor ionotropic, NMDA 1 (Rattus norvegicus, UniProt P35439)
[10] = target: T3, Gamma-aminobutyric acid receptor subunit alpha-1; assay type: functional
Histamine H3 receptor = Histamine H3 receptor (Homo sapiens, UniProt Q9Y5N1)
[11] = target: Neuronal acetylcholine receptor subunit alpha-4 (Homo sapiens, UniProt P43681)
Motilin receptor = Motilin receptor (Homo sapiens, UniProt O43193)
Note: assay procedure not described here.

Motilin receptor, sequence (O43193 whole entry): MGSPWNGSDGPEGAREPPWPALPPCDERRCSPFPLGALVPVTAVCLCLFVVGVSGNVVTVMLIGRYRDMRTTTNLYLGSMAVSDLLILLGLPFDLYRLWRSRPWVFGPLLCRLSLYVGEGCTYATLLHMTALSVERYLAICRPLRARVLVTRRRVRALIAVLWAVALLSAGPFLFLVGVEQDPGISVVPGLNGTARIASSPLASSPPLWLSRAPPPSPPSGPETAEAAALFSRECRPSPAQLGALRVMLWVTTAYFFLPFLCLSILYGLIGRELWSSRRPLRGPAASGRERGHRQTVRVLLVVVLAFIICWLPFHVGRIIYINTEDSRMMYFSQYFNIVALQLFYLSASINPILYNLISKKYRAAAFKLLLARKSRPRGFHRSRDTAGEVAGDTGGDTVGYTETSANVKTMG
Histamine H1 receptor, sequence (P35367 whole entry): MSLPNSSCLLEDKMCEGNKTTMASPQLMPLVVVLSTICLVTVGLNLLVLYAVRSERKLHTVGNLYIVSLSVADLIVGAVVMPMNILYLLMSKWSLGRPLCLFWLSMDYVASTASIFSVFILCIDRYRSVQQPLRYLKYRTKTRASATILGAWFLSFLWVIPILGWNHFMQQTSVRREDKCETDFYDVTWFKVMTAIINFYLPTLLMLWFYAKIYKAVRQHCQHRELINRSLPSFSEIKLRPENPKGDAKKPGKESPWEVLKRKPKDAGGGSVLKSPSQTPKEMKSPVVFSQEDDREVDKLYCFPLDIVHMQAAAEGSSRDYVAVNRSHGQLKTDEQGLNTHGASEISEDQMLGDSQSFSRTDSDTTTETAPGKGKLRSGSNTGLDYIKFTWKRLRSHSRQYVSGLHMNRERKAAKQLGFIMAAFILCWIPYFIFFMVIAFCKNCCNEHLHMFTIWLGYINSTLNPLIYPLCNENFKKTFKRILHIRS
D(3) dopamine receptor, sequence (P35462 whole entry): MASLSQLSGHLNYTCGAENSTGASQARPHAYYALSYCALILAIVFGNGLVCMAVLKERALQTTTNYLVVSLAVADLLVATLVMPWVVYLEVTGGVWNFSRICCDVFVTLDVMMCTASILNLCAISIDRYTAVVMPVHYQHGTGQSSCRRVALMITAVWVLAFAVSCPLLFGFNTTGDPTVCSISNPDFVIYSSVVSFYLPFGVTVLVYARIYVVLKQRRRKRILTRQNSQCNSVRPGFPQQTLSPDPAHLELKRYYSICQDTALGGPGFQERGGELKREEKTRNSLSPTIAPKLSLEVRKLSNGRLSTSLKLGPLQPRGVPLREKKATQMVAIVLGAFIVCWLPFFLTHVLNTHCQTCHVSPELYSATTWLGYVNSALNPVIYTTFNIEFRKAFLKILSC
Histamine H3 receptor, sequence (Q9Y5N1 whole entry): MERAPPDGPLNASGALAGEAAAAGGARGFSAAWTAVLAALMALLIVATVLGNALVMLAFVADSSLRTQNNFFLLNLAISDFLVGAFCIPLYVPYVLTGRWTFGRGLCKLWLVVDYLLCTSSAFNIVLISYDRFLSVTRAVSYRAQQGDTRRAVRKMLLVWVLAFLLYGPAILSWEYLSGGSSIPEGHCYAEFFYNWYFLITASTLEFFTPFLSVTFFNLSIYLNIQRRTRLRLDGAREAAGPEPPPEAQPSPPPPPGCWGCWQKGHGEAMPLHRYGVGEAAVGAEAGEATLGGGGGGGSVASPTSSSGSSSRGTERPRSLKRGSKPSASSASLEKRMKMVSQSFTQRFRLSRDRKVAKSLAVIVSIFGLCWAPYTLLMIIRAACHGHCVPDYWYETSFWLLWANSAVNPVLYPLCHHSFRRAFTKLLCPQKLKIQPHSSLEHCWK
Histamine H2 receptor, sequence (P25021 whole entry): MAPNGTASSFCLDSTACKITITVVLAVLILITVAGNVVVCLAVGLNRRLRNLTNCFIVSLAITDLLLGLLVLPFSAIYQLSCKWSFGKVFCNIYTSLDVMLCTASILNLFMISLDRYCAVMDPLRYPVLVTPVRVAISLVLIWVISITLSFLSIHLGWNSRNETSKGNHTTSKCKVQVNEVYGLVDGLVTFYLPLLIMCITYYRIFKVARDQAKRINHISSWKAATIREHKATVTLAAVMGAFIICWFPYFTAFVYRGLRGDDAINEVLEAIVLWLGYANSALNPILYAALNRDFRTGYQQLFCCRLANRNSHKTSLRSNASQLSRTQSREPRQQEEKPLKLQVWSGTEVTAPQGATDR
T3 sequence (P62813 whole entry): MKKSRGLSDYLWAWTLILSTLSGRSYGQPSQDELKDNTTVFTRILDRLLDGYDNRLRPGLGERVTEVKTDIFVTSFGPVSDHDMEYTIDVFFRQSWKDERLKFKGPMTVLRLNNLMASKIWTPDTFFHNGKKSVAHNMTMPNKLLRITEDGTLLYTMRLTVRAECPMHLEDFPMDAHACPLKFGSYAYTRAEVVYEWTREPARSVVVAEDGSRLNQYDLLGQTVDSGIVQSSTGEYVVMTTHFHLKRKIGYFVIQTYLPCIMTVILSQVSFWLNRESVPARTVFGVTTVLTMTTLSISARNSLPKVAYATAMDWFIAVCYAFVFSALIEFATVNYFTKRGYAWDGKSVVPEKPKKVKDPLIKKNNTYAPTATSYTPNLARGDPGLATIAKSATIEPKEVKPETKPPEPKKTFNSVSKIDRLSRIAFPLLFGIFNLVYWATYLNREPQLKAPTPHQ
Sodium-dependent noradrenaline transporter, sequence (P23975 whole entry): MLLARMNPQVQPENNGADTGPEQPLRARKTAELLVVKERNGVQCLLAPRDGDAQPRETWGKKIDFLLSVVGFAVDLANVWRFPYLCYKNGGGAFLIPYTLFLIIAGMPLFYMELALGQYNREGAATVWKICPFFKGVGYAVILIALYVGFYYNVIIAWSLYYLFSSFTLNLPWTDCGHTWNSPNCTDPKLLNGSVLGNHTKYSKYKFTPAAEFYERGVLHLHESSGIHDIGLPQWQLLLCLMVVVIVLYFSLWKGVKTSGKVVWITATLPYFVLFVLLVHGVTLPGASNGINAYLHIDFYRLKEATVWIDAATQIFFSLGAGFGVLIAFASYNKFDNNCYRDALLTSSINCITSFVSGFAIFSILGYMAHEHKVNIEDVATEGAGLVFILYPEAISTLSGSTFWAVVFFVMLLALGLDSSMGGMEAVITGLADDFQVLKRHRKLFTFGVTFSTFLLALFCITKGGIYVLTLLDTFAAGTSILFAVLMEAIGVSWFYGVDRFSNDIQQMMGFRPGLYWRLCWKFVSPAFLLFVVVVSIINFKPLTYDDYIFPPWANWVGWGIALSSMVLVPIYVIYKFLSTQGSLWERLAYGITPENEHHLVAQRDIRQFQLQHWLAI
Sodium-dependent serotonin transporter, sequence (P31645 whole entry): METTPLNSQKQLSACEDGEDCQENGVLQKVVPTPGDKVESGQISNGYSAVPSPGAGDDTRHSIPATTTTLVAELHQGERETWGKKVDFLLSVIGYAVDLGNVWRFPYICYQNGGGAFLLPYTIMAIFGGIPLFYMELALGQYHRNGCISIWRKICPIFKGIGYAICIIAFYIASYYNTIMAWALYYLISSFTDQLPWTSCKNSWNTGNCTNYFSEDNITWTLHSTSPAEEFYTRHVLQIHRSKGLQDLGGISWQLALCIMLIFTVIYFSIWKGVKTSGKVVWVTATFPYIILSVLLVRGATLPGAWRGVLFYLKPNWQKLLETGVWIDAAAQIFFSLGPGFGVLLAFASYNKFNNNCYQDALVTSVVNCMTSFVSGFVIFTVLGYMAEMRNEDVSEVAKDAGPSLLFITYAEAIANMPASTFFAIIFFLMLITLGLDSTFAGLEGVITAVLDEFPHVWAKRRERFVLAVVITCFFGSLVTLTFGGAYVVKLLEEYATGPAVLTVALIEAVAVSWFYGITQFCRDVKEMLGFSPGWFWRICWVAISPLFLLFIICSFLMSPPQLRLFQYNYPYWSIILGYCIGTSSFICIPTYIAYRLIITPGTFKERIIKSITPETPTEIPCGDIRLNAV
Neuronal acetylcholine receptor subunit alpha-4, sequence (P43681 whole entry): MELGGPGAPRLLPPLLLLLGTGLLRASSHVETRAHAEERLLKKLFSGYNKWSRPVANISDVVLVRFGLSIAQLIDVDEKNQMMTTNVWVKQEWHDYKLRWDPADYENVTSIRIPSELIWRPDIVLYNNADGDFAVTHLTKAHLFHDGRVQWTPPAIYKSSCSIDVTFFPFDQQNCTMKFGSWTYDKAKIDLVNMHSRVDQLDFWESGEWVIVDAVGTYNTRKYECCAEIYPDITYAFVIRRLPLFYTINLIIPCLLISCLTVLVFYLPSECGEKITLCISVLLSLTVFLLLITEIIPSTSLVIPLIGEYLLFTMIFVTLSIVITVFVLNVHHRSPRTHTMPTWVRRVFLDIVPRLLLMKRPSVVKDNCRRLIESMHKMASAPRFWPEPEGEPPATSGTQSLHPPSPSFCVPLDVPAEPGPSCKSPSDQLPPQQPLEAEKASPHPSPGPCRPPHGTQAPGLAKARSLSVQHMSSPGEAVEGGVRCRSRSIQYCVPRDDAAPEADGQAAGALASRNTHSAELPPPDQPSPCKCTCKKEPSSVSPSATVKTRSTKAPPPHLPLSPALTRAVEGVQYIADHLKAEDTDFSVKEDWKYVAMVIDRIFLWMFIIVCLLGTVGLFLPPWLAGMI

Row | Compound | AC50 [1] [µM] | AC50 [2] [µM] | AC50 [3] [µM] | AC50 (D(3) dopamine receptor) [µM] | AC50 [4] [µM] | AC50 [5] [µM] | AC50 [6] [µM] | AC50 (Histamine H2 receptor) [µM] | AC50 (Histamine H1 receptor) [µM] | AC50 [7] [µM] | AC50 [8] [µM] | AC50 [9] [µM] | AC50 [10] [µM] | AC50 (Histamine H3 receptor) [µM] | AC50 [11] [µM] | AC50 (Motilin receptor) [µM]
1 | N#Cc1ccccc1-c1cc(-c2ccccn2)cn(-c2ccccc2)c1=O | > 30 | > 30 | > 30 | > 30 | > 30 | > 30 | > 30 | > 30 | > 30 | > 30 | > 30 | > 30 | > 30 | > 30 | > 30 | > 30
2 | N=C(N)NCCCCCCC(=O)NC(O)C(=O)NCCCCNCCCN (centres undefined) | > 30 | > 30 | > 30 | > 30 | > 30 | > 30 | > 30 | > 30 | > 30 | > 30 | > 30 | > 30 | > 30 | > 30 | > 30 | > 30
3 | NS(=O)(=O)c1cc2c(cc1C(F)(F)F)NC(Cc1ccccc1)NS2(=O)=O (centres undefined) [BENDROFLUMETHIAZIDE] | > 30 | > 10 | > 10 | > 30 | > 10 | > 30 | > 10 | > 10 | > 10 | > 30 | > 30 | > 10 | > 10 | > 10 | > 10 | > 10
4 | O=C(CCCN1CCC(n2c(O)nc3ccccc32)CC1)c1ccc(F)cc1 [BENPERIDOL] | > 30 | > 30 | > 30 | 0.0053 | > 30 | > 30 | 0.166 | > 30 | 0.73 | 12 | > 30 | > 30 | > 30 | 18 | > 30 | 26
5 | CCC(=O)OCC(=O)[C@@]1(OC(=O)CC)[C@@H](C)C[C@H]2[C@@H]3CCC4=CC(=O)C=C[C@]4(C)[C@@]3(F)[C@@H](O)C[C@@]21C [BETAMETHASONE DIPROPIONATE] | > 30 | > 30 | > 30 | > 30 | > 30 | > 30 | > 30 | > 30 | > 30 | > 30 | > 30 | > 30 | > 30 | > 30 | > 30 | > 30
6 | CCOC(=O)NNc1ccc(N(CC)CC(C)O)nn1 (centres undefined) [CADRALAZINE] | > 30 | > 30 | > 30 | > 30 | > 30 | > 30 | 27 | > 30 | > 30 | > 30 | > 30 | > 30 | > 30 | > 30 | > 30 | > 30
7 | CCCC(C)(COC(N)=O)COC(=O)NC(C)C (centres undefined) [CARISOPRODOL] | > 10 | > 30 | > 30 | > 10 | > 10 | > 30 | > 10 | > 10 | > 10 | > 10 | > 30 | > 10 | > 10 | > 10 | > 10 | > 10
8 | CO[C@@]1(NC(=O)Cc2cccs2)C(=O)N2C(C(=O)O)=C(COC(N)=O)CS[C@@H]21 [CEFOXITIN] | > 30 | > 30 | > 30 | > 30 | > 10 | > 30 | > 30 | > 30 | > 30 | > 30 | > 30 | > 30 | > 30 | > 30 | > 30 | > 30
9 | COCCOC(=O)C1=C(C)NC(C)=C(C(=O)OC/C=C/c2ccccc2)C1c1cccc([N+](=O)[O-])c1 (centres undefined) [CILNIDIPINE] | > 30 | > 30 | > 30 | > 30 | > 30 | 26 | > 30 | > 30 | > 30 | > 30 | > 30 | > 30 | > 30 | > 30 | > 30 | 24
10 | CCCC[C@H](C)C[C@H](O)/C=C/[C@H]1[C@H](O)CC(=O)[C@@H]1CCCC/C=C/C(=O)O [LIMAPROST] | > 30 | > 30 | > 30 | > 30 | > 30 | > 30 | > 30 | > 30 | > 30 | > 30 | > 30 | > 30 |  | > 30 | > 30 | > 30
11 | CC(CCc1ccccc1)NC(C)C(O)c1ccc(O)cc1 (centres undefined) [NYLIDRIN] | > 10 | > 30 | > 30 | 1.3 | > 10 | > 30 | 12 | > 10 | > 10 | 11 | > 10 |  | > 10 | > 10 | > 10 | > 10
12 | CC(=O)O[C@H]1C[C@@H]2CC[C@@H]3[C@H](CC[C@@]4(C)[C@H]3C[C@H]([N+]3(C)CCCCC3)[C@@H]4OC(C)=O)[C@@]2(C)C[C@@H]1[N+]1(C)CCCCC1 [PANCURONIUM] | > 10 | > 10 | > 10 | > 30 | > 10 | > 10 | > 10 | > 10 | > 10 | > 10 | > 30 | > 10 | > 10 |  | > 10 | > 10
